# Measured values: PubChem BioAssay AID2060510 (Molecular Pharmacology Branch, DTP, NCI, 2025)
# Tested on: 439559-082-T-J2-PDC spheroids viability
# Experiment: Anticancer human tumor 439559-082-T-J2-PDC patient-derived colon adenocarcinoma cell line growth inhibition [GQUAD]
# Details: for IC50: curve of first compound; for viability, T/C: stronger effect = lower value
# How it was run: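 Multi-cell-type spheroids of tumor cells with HUVEC and mesenchymal stem cells, treated with drug combinations. Concentrations descend in half-log steps from near clinical Cmax, or from 10 microM where Cmax is unknown; viability read-out.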
# [1] = second compound 0.0316 µM, first compound 0.000999 µM
# [2] = second compound 0.0316 µM, first compound 0.00316 µM
# [3] = second compound 0.0316 µM, first compound 0.00999 µM
# [4] = second compound 0.0316 µM, first compound 0.0316 µM
# [5] = second compound 0.0316 µM, first compound 0.0999 µM
# [6] = second compound 0.0316 µM, first compound 0.316 µM
# [7] = second compound 0.1 µM, first compound 0.000999 µM
# [8] = second compound 0.1 µM, first compound 0.00316 µM
# [9] = second compound 0.1 µM, first compound 0.00999 µM
# [10] = second compound 0.1 µM, first compound 0.0316 µM
# [11] = second compound 0.1 µM, first compound 0.0999 µM
# [12] = second compound 0.1 µM, first compound 0.316 µM
# [13] = second compound 0.316 µM, first compound 0.000999 µM
# [14] = second compound 0.316 µM, first compound 0.00316 µM
# [15] = second compound 0.316 µM, first compound 0.00999 µM
# [16] = second compound 0.316 µM, first compound 0.0316 µM
# [17] = second compound 0.316 µM, first compound 0.0999 µM
# [18] = second compound 0.316 µM, first compound 0.316 µM
# [19] = second compound 1 µM, first compound 0.000999 µM
# [20] = second compound 1 µM, first compound 0.00316 µM
# [21] = second compound 1 µM, first compound 0.00999 µM
# [22] = second compound 1 µM, first compound 0.0316 µM
# [23] = second compound 1 µM, first compound 0.0999 µM
# [24] = second compound 1 µM, first compound 0.316 µM
# [25] = second compound 3.16 µM, first compound 0.000999 µM
# [26] = second compound 3.16 µM, first compound 0.00316 µM
# [27] = second compound 3.16 µM, first compound 0.00999 µM
# [28] = second compound 3.16 µM, first compound 0.0316 µM
# [29] = second compound 3.16 µM, first compound 0.0999 µM
# [30] = second compound 3.16 µM, first compound 0.316 µM
# [31] = second compound 10 µM, first compound 0.000999 µM
# [32] = second compound 10 µM, first compound 0.00316 µM
# [33] = second compound 10 µM, first compound 0.00999 µM
# [34] = second compound 10 µM, first compound 0.0316 µM
# [35] = second compound 10 µM, first compound 0.0999 µM
# [36] = second compound 10 µM, first compound 0.316 µM
# 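Note: spheroids exposed to the agents for 7 days before readout.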
# 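Throughout, for viability, T/C: percent of luminescence signal in DMSO vehicle wells taken as 100% viability.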
structure (smiles),measurement,setting,value
CCc1c2c(nc3ccc(O)cc13)-c1cc3c(c(=O)n1C2)COC(=O)[C@]3(O)CC + Cc1cnc(CNC(=O)c2c(=O)c3ccc(N4CCCN(C)CC4)nc3n3c2sc2ccccc23)cn1,IC50,second compound 0.0316 µM,157 nM
same,IC50,second compound 0.1 µM,122 nM
same,IC50,second compound 0.316 µM,125 nM
same,IC50,second compound 1 µM,92.4 nM
same,IC50,second compound 3.16 µM,61 nM
same,IC50,second compound 10 µM,67.2 nM
same,"viability, T/C",[1],99.4%
same,"viability, T/C",[2],83.5%
same,"viability, T/C",[3],78.8%
same,"viability, T/C",[4],66.4%
same,"viability, T/C",[5],53.7%
same,"viability, T/C",[6],43.1%
same,"viability, T/C",[7],88.7%
same,"viability, T/C",[8],79.5%
same,"viability, T/C",[9],76.2%
same,"viability, T/C",[10],68.1%
same,"viability, T/C",[11],53.4%
same,"viability, T/C",[12],34%
same,"viability, T/C",[13],77.3%
same,"viability, T/C",[14],70.1%
same,"viability, T/C",[15],72.3%
same,"viability, T/C",[16],65%
same,"viability, T/C",[17],55%
same,"viability, T/C",[18],31.8%
same,"viability, T/C",[19],67.3%
same,"viability, T/C",[20],69.9%
same,"viability, T/C",[21],60.6%
same,"viability, T/C",[22],59.4%
same,"viability, T/C",[23],50.1%
same,"viability, T/C",[24],33.8%
same,"viability, T/C",[25],65.7%
same,"viability, T/C",[26],74.8%
same,"viability, T/C",[27],56.9%
same,"viability, T/C",[28],55.7%
same,"viability, T/C",[29],47.6%
same,"viability, T/C",[30],24.6%
same,"viability, T/C",[31],60.6%
same,"viability, T/C",[32],60.4%
same,"viability, T/C",[33],58.3%
same,"viability, T/C",[34],52.8%
same,"viability, T/C",[35],48.8%
same,"viability, T/C",[36],20.1%
Cn1ncnc1[C@H]1c2n[nH]c(=O)c3cc(F)cc(c23)N[C@@H]1c1ccc(F)cc1 + Cc1cnc(CNC(=O)c2c(=O)c3ccc(N4CCCN(C)CC4)nc3n3c2sc2ccccc23)cn1,IC50,second compound 0.0316 µM,> 316 nM
same,IC50,second compound 0.1 µM,> 316 nM
same,IC50,second compound 0.316 µM,> 316 nM
same,IC50,second compound 1 µM,> 316 nM
same,IC50,second compound 3.16 µM,> 316 nM
same,IC50,second compound 10 µM,> 316 nM
same,"viability, T/C",[1],96.2%
same,"viability, T/C",[2],92%
same,"viability, T/C",[3],102%
same,"viability, T/C",[4],99.7%
same,"viability, T/C",[5],103%
same,"viability, T/C",[6],94.8%
same,"viability, T/C",[7],109%
same,"viability, T/C",[8],84.8%
same,"viability, T/C",[9],95.8%
same,"viability, T/C",[10],88%
same,"viability, T/C",[11],87.3%
same,"viability, T/C",[12],79.6%
same,"viability, T/C",[13],93.8%
same,"viability, T/C",[14],85.5%
same,"viability, T/C",[15],93%
same,"viability, T/C",[16],82.6%
same,"viability, T/C",[17],88.6%
same,"viability, T/C",[18],74.4%
same,"viability, T/C",[19],72.2%
same,"viability, T/C",[20],81.5%
same,"viability, T/C",[21],74.3%
same,"viability, T/C",[22],76%
same,"viability, T/C",[23],81.6%
same,"viability, T/C",[24],64.8%
same,"viability, T/C",[25],72.1%
same,"viability, T/C",[26],70.8%
same,"viability, T/C",[27],76.5%
same,"viability, T/C",[28],71%
same,"viability, T/C",[29],73.8%
same,"viability, T/C",[30],67.8%
same,"viability, T/C",[31],65%
same,"viability, T/C",[32],65%
same,"viability, T/C",[33],67.4%
same,"viability, T/C",[34],63.5%
same,"viability, T/C",[35],70.9%
same,"viability, T/C",[36],63.9%
CC1COCCN1c1cc(C2(S(C)(=N)=O)CC2)nc(-c2ccnc3[nH]ccc23)n1 (stereo unspecified) + CN(C)c1ccc(Nc2c3ccc(NC(=O)CCN4CCCC4)cc3nc3cc(NC(=O)CCN4CCCC4)ccc23)cc1,IC50,second compound 0.0316 µM,> 10000 nM
same,IC50,second compound 0.1 µM,> 10000 nM
same,IC50,second compound 0.316 µM,> 10000 nM
same,IC50,second compound 1 µM,> 10000 nM
same,IC50,second compound 3.16 µM,> 10000 nM
same,IC50,second compound 10 µM,> 10000 nM
same,"viability, T/C",[4],93.8%
same,"viability, T/C","second compound 0.0316 µM, first compound 0.1 µM",90%
same,"viability, T/C",[6],92.4%
same,"viability, T/C","second compound 0.0316 µM, first compound 1 µM",86.8%
same,"viability, T/C","second compound 0.0316 µM, first compound 3.16 µM",89.7%
same,"viability, T/C","second compound 0.0316 µM, first compound 10 µM",65%
same,"viability, T/C",[10],97.1%
same,"viability, T/C","second compound 0.1 µM, first compound 0.1 µM",97.4%
same,"viability, T/C",[12],89.9%
same,"viability, T/C","second compound 0.1 µM, first compound 1 µM",94.7%
same,"viability, T/C","second compound 0.1 µM, first compound 3.16 µM",79.9%
same,"viability, T/C","second compound 0.1 µM, first compound 10 µM",64.4%
same,"viability, T/C",[16],93.3%
same,"viability, T/C","second compound 0.316 µM, first compound 0.1 µM",107%
same,"viability, T/C",[18],97.8%
same,"viability, T/C","second compound 0.316 µM, first compound 1 µM",100%
same,"viability, T/C","second compound 0.316 µM, first compound 3.16 µM",93.4%
same,"viability, T/C","second compound 0.316 µM, first compound 10 µM",64.3%
same,"viability, T/C",[22],100%
same,"viability, T/C","second compound 1 µM, first compound 0.1 µM",107%
same,"viability, T/C",[24],102%
same,"viability, T/C","second compound 1 µM, first compound 1 µM",86.8%
same,"viability, T/C","second compound 1 µM, first compound 3.16 µM",84.5%
same,"viability, T/C","second compound 1 µM, first compound 10 µM",67.6%
same,"viability, T/C",[28],105%
same,"viability, T/C","second compound 3.16 µM, first compound 0.1 µM",98.9%
same,"viability, T/C",[30],104%
same,"viability, T/C","second compound 3.16 µM, first compound 1 µM",93.5%
same,"viability, T/C","second compound 3.16 µM, first compound 3.16 µM",88.6%
same,"viability, T/C","second compound 3.16 µM, first compound 10 µM",62.4%
same,"viability, T/C",[34],97.3%
same,"viability, T/C","second compound 10 µM, first compound 0.1 µM",98.6%
same,"viability, T/C",[36],115%
same,"viability, T/C","second compound 10 µM, first compound 1 µM",106%
same,"viability, T/C","second compound 10 µM, first compound 3.16 µM",81.8%
same,"viability, T/C","second compound 10 µM, first compound 10 µM",63.7%
